# Measurements taken from patent US11760761B2, “Methods and compositions for targeting PD-L1” (Aligos Therapeutics, Inc., priority 2020, dated 2023).
# How the values were obtained:
# PDL1/PD1 = PDL1/PD1 (Homo sapiens (Human), UniProt Q9NZQ7); assay: PDL1/PD1 Binding Assay; settings: PDL1-6xHis 0.3 nM, PD1-Fc-Avi-Biotin 2.5 nM, Acceptor/Donor beads; read-out: PD-1/PD-L1 PPI IC50
# Experimental: Compounds to be tested were serially diluted in DMSO, and further diluted in assay buffer (25 mM Hepes pH 7.4, 150 mM NaCl, 0.005% Tween 20, BSA 0.01%). Diluted compounds were added to the wells with final concentration of DMSO at 1%. PDL1-6×His protein was added to the wells, mixed well with compound. The plates were incubated for 30 min at room temperature. PD1-Fc-Avi-Biotin protein was added to the wells. Final concentration of PDL1 and PD1 protein is 0.3 nM and 2.5 nM, respectively. After a binding time of 30 min at room temperature, Anti-6×His Acceptor beads (final concentration 20 ug/ml) were added to the wells, and the incubation continued for 1 h. Streptavidin Donor beads (final concentration 20 ug/mL) were added at reduced light. The plates were sealed with foil and incubated in the dark for additional 1 h or overnight before reading on an Envision reader. The IC50 values were determined by fitting the curves using a four-parameter equation in Graphpad Prism 8.
# PD-1/PD-L1 interaction = PD-1/PD-L1 interaction (Homo sapiens (Human), UniProt Q9NZQ7); assay: PD-1/PD-L1 NFAT Reporter Assay (Jurkat T cells / PD-L1 expressing CHO cells co-culture); format: cell-based; settings: for Emax: Jurkat, maximum NFAT-activation level relative to the positive control (10 nM Atezolizumab); for EC50: co-culture 6 hrs at 37° C., luciferase
# Experimental: Blocking the PD-1/PD-L1 interaction will release the inhibitory signal and results in TCR signaling and NFAT-mediated luciferase activity.
# CHO cells expressing surface-bound anti-CD3 antibodies and PD-L1 were first seeded overnight and treated with the compounds. Jurkat cells overexpressing PD-1 and a luciferase construct under NF-AT promoter were then immediately seeded on the monolayer of CHO cells. The co-culture was then incubated for 6 hrs at 37° C. Luciferase activity was assessed by adding the ONE-Glo reagent and measuring luminescence with a plate reader. EC50s values were determined from the fit of the dose-response curves Emax (%) corresponds to the maximum NFAT-activation level reached by a given compound relative to the positive control (10 nM Atezolizumab).
# PDL1 = PDL1 (Homo sapiens (Human), UniProt Q9NZQ7); assay: PDL1 Dimerization Assay; format: biochemical; settings: 0.5 nM PDL1-6xHis, 0.5 nM PDL1-strep; read-out: PD-L1 dimerization EC50
# Experimental: Serially diluted compounds were added to plate wells with the final concentration of DMASO at 1%. PDL1-6×His and PDL1-strep proteins were diluted in assay buffer (25 mM Hepes pH 7.4, 150 mM NaCl, 0.005% Tween 20, BSA 0.01%), added to the wells, and mixed well with the compounds. The plates were incubated for 2 h at room temperature. Anti-6×His Acceptor beads were added to the wells and the plates were further incubated for 1 h at room temperature. Strep-tactin Donor beads were added to the wells at reduced light. After additional 1 h incubation in the dark, the plates were read on a Envision reader. The final concentrations were 0.5 nM PDL1-6×His, 0.5 nM PDL1-strep, 20 ug/mL Anti-6×His Acceptor beads, 20 ug/mL Strep-tactin Donor beads. The EC50 values were determined by fitting the curves using a four-parameter equation in Graphpad Prism 8.
# Sequence of PDL1/PD1 (Q9NZQ7 19-238): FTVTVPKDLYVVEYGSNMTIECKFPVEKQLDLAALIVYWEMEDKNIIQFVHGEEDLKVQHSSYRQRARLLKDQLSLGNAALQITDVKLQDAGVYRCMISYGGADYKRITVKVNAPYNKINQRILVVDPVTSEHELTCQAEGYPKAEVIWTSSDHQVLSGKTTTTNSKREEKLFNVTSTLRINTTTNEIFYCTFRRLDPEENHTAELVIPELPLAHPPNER
# Sequence of PDL1 (Q9NZQ7 19-238): as above
# Sequence of PDL1 (Q9NZQ7 19-238): as above
# Sequence of PD-1/PD-L1 interaction (Q9NZQ7 19-290): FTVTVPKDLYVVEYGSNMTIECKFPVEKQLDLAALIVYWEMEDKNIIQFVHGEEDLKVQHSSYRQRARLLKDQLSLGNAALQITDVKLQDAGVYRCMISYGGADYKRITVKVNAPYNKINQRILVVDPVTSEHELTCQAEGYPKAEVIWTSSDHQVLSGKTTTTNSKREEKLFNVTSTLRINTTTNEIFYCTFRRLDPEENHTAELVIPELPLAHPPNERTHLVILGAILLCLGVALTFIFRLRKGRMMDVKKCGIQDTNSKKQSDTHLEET
Compound,IC50 (PDL1/PD1),Emax (PD-1/PD-L1 interaction),EC50 (PD-1/PD-L1 interaction),EC50 (PDL1)
"COc1cc(-c2cccc(-c3cccc(-c4cnc(CN5CC6(CCC(=O)N6)C5)c(OC)n4)c3Cl)c2Cl)cc2c1[C@H](N1CC3(CCC(=O)N3)C1)CC2 (single isomer, unassigned) [Compound A-8]",≤ 10 nM,145%,100 to 1000 nM,1000 to 10000 nM
"COc1cc(-c2cccc(-c3cccc(-c4cnc(CN5CC(O)C5)c(OC)n4)c3Cl)c2Cl)cc2c1[C@@H](N1CC(O)C1)CC2 (single isomer, unassigned) [Compound A-9]",≤ 10 nM,105%,100 to 1000 nM,1000 to 10000 nM
"COc1cc(-c2cccc(-c3cccc(-c4cnc(CN5CC6(CCC(=O)N6)C5)c(OC)n4)c3Cl)c2Cl)cc2c1[C@H](NCC(=O)O)CC2 (single isomer, unassigned) [Compound B-2]",,107%,100 to 1000 nM,1000 to 10000 nM
"COc1nc(-c2cccc(-c3cccc(-c4cc5c(c(OC)n4)[C@H](N4CC(C(=O)O)C4)CC5)c3Cl)c2Cl)cnc1CN1C[C@@H](O)[C@@H]1C (single isomer, unassigned) [Compound H-6]",≤ 10 nM,,100 to 1000 nM,
CCOC(=O)CN[C@H]1CCc2cc(-c3cccc(-c4cccc(-c5cnc(CN6CC7(CCC(=O)N7)C6)c(OC)n5)c4Cl)c3Cl)cc(OC)c21 [Compound A-1],≤ 10 nM,33%,,
COc1cc(-c2cccc(-c3cccc(-c4cnc(CN5CC6(CCC(=O)N6)C5)c(OC)n4)c3Cl)c2Cl)cc2c1[C@@H](NCC(=O)O)CC2 [Compound B-1],,89%,1000 to 10000 nM,1000 to 10000 nM
COc1nc(-c2cccc(-c3cccc(-c4cc5c(c(OC)n4)[C@H](NC[C@@H]4CCC(=O)N4)CC5)c3Cl)c2Cl)cnc1CN1CC2(CCC(=O)N2)C1 [Compound C-2],≤ 10 nM,,100 to 1000 nM,
COc1nc(-c2cccc(-c3cccc(-c4cc5c(c(OC)n4)C(NC[C@H]4CCC(=O)N4)CC5)c3Cl)c2Cl)cnc1CN1CC2(CCC(=O)N2)C1 (some centres unmarked) [Compound C-7],≤ 10 nM,,10 to 100 nM,
COc1nc(-c2cccc(-c3cccc(-c4cc5c(c(OC)n4)C(NC4CN(C(C)=O)C4)CC5)c3Cl)c2Cl)cnc1CN1CC2(CCC(=O)N2)C1 (centres unmarked) [Compound C-8],≤ 10 nM,,10 to 100 nM,
COc1nc(-c2cccc(-c3cccc(-c4cc5c(c(OC)n4)C(N4CCC(F)(F)C4)CC5)c3Cl)c2Cl)cnc1CN1CC2(CCC(=O)N2)C1 (centres unmarked) [Compound C-9],≤ 10 nM,,100 to 1000 nM,
COc1nc(-c2cccc(-c3cccc(-c4cc5c(c(OC)n4)C(N4CCN(C(C)=O)CC4)CC5)c3Cl)c2Cl)cnc1CN1CC2(CCC(=O)N2)C1 (centres unmarked) [Compound C-10],≤ 10 nM,,10 to 100 nM,
COc1nc(-c2cccc(-c3cccc(-c4cc5c(c(OC)n4)C(N4CC6(CN(C(C)=O)C6)C4)CC5)c3Cl)c2Cl)cnc1CN1CC2(CCC(=O)N2)C1 (centres unmarked) [Compound C-11],≤ 10 nM,,10 to 100 nM,
CCOc1nc(-c2cccc(-c3cccc(-c4cnc(CN5CC6(CCC(=O)N6)C5)c(OC)n4)c3Cl)c2Cl)cc2c1C(NC[C@@H]1CCC(=O)N1)CC2 (some centres unmarked) [Compound C-12],≤ 10 nM,,10 to 100 nM,
COc1nc(-c2cccc(-c3cccc(-c4cc5c(c(OCC6CC6)n4)C(NC[C@@H]4CCC(=O)N4)CC5)c3Cl)c2Cl)cnc1CN1CC2(CCC(=O)N2)C1 (some centres unmarked) [Compound C-14],≤ 10 nM,,10 to 100 nM,
COc1nc(-c2cccc(-c3cccc(-c4cc5c(c(OCc6ccccn6)n4)C(NC[C@@H]4CCC(=O)N4)CC5)c3Cl)c2Cl)cnc1CN1CC2(CCC(=O)N2)C1 (some centres unmarked) [Compound C-15],≤ 10 nM,,10 to 100 nM,
COc1nc(-c2cccc(-c3cccc(-c4cc5c(c(OC)n4)[C@@H](NC[C@@H]4CCC(=O)N4)CC5)c3Cl)c2Cl)cnc1CNC[C@@H]1CCC(=O)N1 [Compound D-2],≤ 10 nM,,≤ 10 nM,

Compound,IC50 (PDL1/PD1),Emax (PD-1/PD-L1 interaction),EC50 (PD-1/PD-L1 interaction),EC50 (PDL1)
COc1nc(-c2cccc(-c3cccc(-c4cc5c(c(OC)n4)[C@@H](NC[C@@H]4CCC(=O)N4)CC5)c3Cl)c2Cl)cnc1CN1CC2(CCCO2)C1 [Compound D-3],≤ 10 nM,,≤ 10 nM,
COc1nc(-c2cccc(-c3cccc(-c4cc5c(c(OC)n4)[C@@H](NC[C@@H]4CCC(=O)N4)CC5)c3Cl)c2Cl)cnc1CN1CC(F)C1 [Compound D-4],≤ 10 nM,,10 to 100 nM,
COc1nc(-c2cccc(-c3cccc(-c4cc5c(c(OC)n4)[C@@H](NC[C@@H]4CCC(=O)N4)CC5)c3Cl)c2Cl)cnc1CN1CC(F)(F)C1 [Compound D-5],≤ 10 nM,,10 to 100 nM,
COc1nc(-c2cccc(-c3cccc(-c4cc5c(c(OC)n4)[C@@H](NC[C@@H]4CCC(=O)N4)CC5)c3Cl)c2Cl)cnc1CN1CCN(C(C)=O)CC1 [Compound D-6],≤ 10 nM,,≤ 10 nM,
COc1nc(-c2cccc(-c3cccc(-c4cc5c(c(OC)n4)[C@H](NC[C@@H]4CCC(=O)N4)CC5)c3Cl)c2Cl)cnc1CN1CC(O)C1 [Compound D-7],≤ 10 nM,,100 to 1000 nM,
COc1nc(-c2cccc(-c3cccc(-c4cc5c(c(OC)n4)[C@@H](NC[C@@H]4CCC(=O)N4)CC5)c3Cl)c2Cl)cnc1CN1CC(O)C1 [Compound D-8],≤ 10 nM,,≤ 10 nM,
COc1nc(-c2cccc(-c3cccc(-c4cc5c(c(OC)n4)[C@@H](NC[C@@H]4CCC(=O)N4)CC5)c3Cl)c2Cl)cnc1CN1CC(OC)C1 [Compound D-9],≤ 10 nM,,≤ 10 nM,
COc1nc(-c2cccc(-c3cccc(-c4cc5c(c(OC)n4)[C@H](NC[C@@H]4CCC(=O)N4)CC5)c3Cl)c2Cl)cnc1CN1CC(OC)C1 [Compound D-10],≤ 10 nM,,1000 to 10000 nM,
COc1nc(-c2cccc(-c3cccc(-c4cc5c(c(OC)n4)[C@@H](NC[C@@H]4CCC(=O)N4)CC5)c3Cl)c2Cl)cnc1CN1CCCC1 [Compound D-11],≤ 10 nM,,≤ 10 nM,
COc1nc(-c2cccc(-c3cccc(-c4cc5c(c(OC)n4)[C@@H](NC[C@@H]4CCC(=O)N4)CC5)c3Cl)c2Cl)cnc1CN1C[C@@H](O)[C@@H]1C [Compound D-13],≤ 10 nM,,≤ 10 nM,
COc1nc(-c2cccc(-c3cccc(-c4cc5c(c(OC)n4)[C@@H](NC[C@@H]4CCC(=O)N4)CC5)c3Cl)c2Cl)ccc1CN1CC2(CCC(=O)N2)C1 [Compound E-3],≤ 10 nM,,≤ 10 nM,
COc1nc(-c2cccc(-c3cccc(-c4cc5c(c(OC)n4)C(N4CCC[C@H](C(=O)O)C4)CC5)c3Cl)c2Cl)cnc1CN1CC(O)C1 (some centres unmarked) [Compound F-2],≤ 10 nM,,10 to 100 nM,
COc1nc(-c2cccc(-c3cccc(-c4cc5c(c(OC)n4)C(N4CCC(C(=O)O)CC4)CC5)c3Cl)c2Cl)cnc1CN1CC(O)C1 (centres unmarked) [Compound F-3],≤ 10 nM,,10 to 100 nM,
COc1nc(-c2cccc(-c3cccc(-c4cc5c(c(OC)n4)CCN(CC(=O)O)C5)c3Cl)c2Cl)cnc1CN1CC(C)(O)C1 [Compound J-2],≤ 10 nM,,10 to 100 nM,
COc1nc(-c2cccc(-c3cccc(-c4cc5c(c(OC)n4)CCN(CC(=O)O)C5)c3Cl)c2Cl)cnc1CN1CC(O)(C(F)(F)F)C1 [Compound J-3],≤ 10 nM,,1000 to 10000 nM,
